Drawing on patent US8729089B2 (Gilead Sciences, Inc., priority 2006, dated 2014), this text covers EC50 and CC50 for 21 compounds.

Series [1] deals with HCV replicon in human hepatoma Huh-7 cell line. The series can be described thus: Anti-HCV replicon assay (EC50, luciferase). The format is cell-based. The note with it: Hepatitis C virus, Huh-7, 72 h. Put shortly:
(§1)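 Huh-7 cells carrying an HCV replicon (6000/well) exposed to 3-fold serial compound dilutions for 3 days at 37 °C, final DMSO 0.5% where used. EC50 read as replicon luciferase luminescence after cell lysis; CC50 from CellTiter-Glo luminescence after 10 min at room temperature.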

A short description of series [2]: CC50 assay (CellTiter-Glo) in Huh-7 HCV replicon cells. Format: cell-based, human. The note with it: human, 3 days incubation, CellTiter-Glo readout. In a few lines:
as §1

By EC50 is commonly meant the concentration at which the effect is half-maximal. Low readings indicate greater potency, high ones weaker potency. One may read the CC50 as the concentration at which the toxic effect on the cells reaches its halfway point. Turning to `Fc1ccc(-c2ccc3nc(NCc4ccc(-c5csnn5)cc4)nc(NCC(F)(F)F)c3n2)cc1` [Example 245, 6-(4-Fluoro-phenyl)-N2-(4-[1,2,3]thiadiazol-4-yl-benzyl)-N4-(2,2,2-trifluoro-ethyl)-pyrido[3,2-d]pyrimidine-2,4-diamine], the EC50 in series [1] is below 0.1 µM. In series [2], this compound registered a CC50 at 3 days above 25 µM.

`Cc1noc(C)c1-c1ccc2nc(NCc3ccc(S(N)(=O)=O)cc3)nc(NCC(F)(F)F)c2n1` [Example 165, 4-{[6-(3,5-Dimethyl-isoxazol-4-yl)-4-(2,2,2-trifluoro-ethylamino)-pyrido[3,2-d]pyrimidin-2-ylamino]-methyl}-benzenesulfonamide] came in with an EC50 in series [1] below 0.1 µM. For the same compound, the CC50 at 3 days in series [2] was below 5 µM.

Take `NS(=O)(=O)c1ccc(CNc2nc(Nc3cccc(F)c3)c3nc(-c4ccc(F)cc4)ccc3n2)cc1` [Example 229, 4-{[6-(4-Fluoro-phenyl)-4-(3-fluoro-phenylamino)-pyrido[3,2-d]pyrimidin-2-ylamino]-methyl}-benzenesulfonamide]: the EC50 in series [1] is below 0.1 µM. The CC50 at 3 days in series [2] was below 5 µM.

For the compound `Fc1ccc(-c2ccc3nc(NCc4cncs4)nc(NCC(F)(F)F)c3n2)cc1` [Example 248, 6-(4-Fluoro-phenyl)-N2-thiazol-5-ylmethyl-N4-(2,2,2-trifluoro-ethyl)-pyrido[3,2-d]pyrimidine-2,4-diamine], in series [1], the EC50 was below 0.1 µM. Besides, the CC50 at 3 days in series [2] fell in the range of 5 to 25 µM.

As for `CCOc1nc(NCc2ccc(F)cc2)nc2ccc(-c3ccc(NC(=O)C4(N)CC4)cc3)nc12` [Example 99, 1-Amino-cyclopropanecarboxylic acid {4-[4-ethoxy-2-(4-fluoro-benzylamino)-pyrido[3,2-d]pyrimidin-6-yl]-phenyl}-amide], the EC50 in series [1] was below 0.1 µM. The CC50 at 3 days in series [2] was below 5 µM.

Turning to `NS(=O)(=O)c1ccc(CNc2nc(NCC(F)(F)F)c3nc(-c4ccc(F)c(NS(=O)(=O)C5CC5)c4)ccc3n2)cc1` [Example 231, 4-{[6-(3-Cyclopropanesulfonylamino-4-fluoro-phenyl)-4-(2,2,2-trifluoro-ethylamino)-pyrido[3,2-d]pyrimidin-2-ylamino]-methyl}-benzenesulfonamide], the EC50 in series [1] is below 0.1 µM. In series [2], this compound showed a CC50 at 3 days above 25 µM.

The compound `NS(=O)(=O)c1ccc(CNc2nc(Oc3cccc(F)c3)c3nc(-c4ccc(F)cc4)ccc3n2)cc1` [Example 235, 4-{[4-(3-Fluoro-phenoxy)-6-(4-fluoro-phenyl)-pyrido[3,2-d]pyrimidin-2-ylamino]-methyl}-benzenesulfonamide] returned an EC50 in series [1] below 0.1 µM. In series [2], this compound had a CC50 at 3 days of 5 to 25 µM.

`CCOc1nc(NCc2cc(F)c(F)c(F)c2)nc2ccc(-c3ccc(F)cc3)nc12` [Example 46, [4-Ethoxy-6-(4-fluoro-phenyl)-pyrido[3,2-d]pyrimidin-2-yl]-(3,4,5-trifluoro-benzyl)-amine] had an EC50 in series [1] below 0.1 µM. The compound further came in with a CC50 at 3 days in series [2] of 5 to 25 µM.

In turn, `NS(=O)(=O)c1cc(-c2ccc3nc(NCc4ccc(F)cc4)nc(NCC(F)(F)F)c3n2)ccc1F` [Example 224, 2-Fluoro-5-[2-(4-fluoro-benzylamino)-4-(2,2,2-trifluoro-ethylamino)-pyrido[3,2-d]pyrimidin-6-yl]-benzenesulfonamide] returned an EC50 in series [1] below 0.1 µM. In series [2], this compound returned a CC50 at 3 days above 25 µM.

Turning to `NS(=O)(=O)c1ccc(CNc2nc(NCC(F)(F)F)c3nc(-c4csc(N5CCCC5)n4)ccc3n2)cc1` [Example 170, 4-{[6-(2-Pyrrolidin-1-yl-thiazol-4-yl)-4-(2,2,2-trifluoro-ethylamino)-pyrido[3,2-d]pyrimidin-2-ylamino]-methyl}-benzenesulfonamide], the EC50 in series [1] is below 0.1 µM. The same compound yielded a CC50 at 3 days in series [2] below 5 µM.

Regarding `CC(C)Nc1nc(NCc2cccnc2)nc2ccc(-c3ccc(F)cc3)nc12` [Example 54, 6-(4-Fluoro-phenyl)-N4-isopropyl-N2-pyridin-3-ylmethyl-pyrido[3,2-d]pyrimidine-2,4-diamine], the EC50 in series [1] was in the range of 0.1 to 0.25 µM. Further, the CC50 at 3 days in series [2] fell in the range of 5 to 25 µM.

On to `CCOc1nc(NCc2cccnc2)nc2ccc(-c3ccc(F)cc3)nc12` [Example 263, [4-Ethoxy-6-(4-fluoro-phenyl)-pyrido[3,2-d]pyrimidin-2-yl]-pyridin-3-ylmethyl-amine], for which the EC50 in series [1] is below 0.1 µM. Also, the CC50 at 3 days in series [2] is above 25 µM.

As for `CCOc1nc(NCc2cccc(F)c2)nc2ccc(-c3ccc(F)cc3)nc12` [Example 47, [4-Ethoxy-6-(4-fluoro-phenyl)-pyrido[3,2-d]pyrimidin-2-yl]-(3-fluoro-benzyl)-amine], the EC50 in series [1] is below 0.1 µM. The CC50 at 3 days in series [2] lay in the range of 5 to 25 µM.

In series [1], `CCOc1nc(NCc2ccc(F)cc2)nc2ccc(-c3ccc4[nH]ncc4c3)nc12` [Example 77, [4-Ethoxy-6-(1H-indazol-5-yl)-pyrido[3,2-d]pyrimidin-2-yl]-(4-fluoro-benzyl)-amine] came in with an EC50 below 0.1 µM. Besides, in series [2], the CC50 at 3 days lay within 5 to 25 µM.

Consider `CCOc1nc(NCc2ccc(S(N)(=O)=O)cc2)nc2ccc(-c3cccc(NS(=O)(=O)N(C)C)c3)nc12` [Example 132], for which the EC50 in series [1] is below 0.1 µM. Further, the CC50 at 3 days in series [2] is below 5 µM.

`CS(=O)(=O)CCNc1nc(NCc2ccc(F)cc2)nc2ccc(-c3ccc(C(N)=O)cc3)nc12` [Example 274, 4-[2-(4-Fluoro-benzylamino)-4-(2-methanesulfonyl-ethylamino)-pyrido[3,2-d]pyrimidin-6-yl]-benzamide] had an EC50 in series [1] below 0.1 µM. For the same compound, the CC50 at 3 days in series [2] was below 5 µM.

For `CCOc1nc(NCc2ccc(S(N)(=O)=O)cc2)nc2ccc(-c3ccc(C(=O)NC(C)(C)CN4CCCC4)cc3)nc12` [Example 142, 4-{[4-Ethoxy-6-(4-(N-(2-(pyrrolidin-1-yl)methyl-2-propyl)-carbamoyl)phenyl)-pyrido[3,2-d]pyrimidin-2-ylamino]-methyl}-benzenesulfonamide], the concentration for a half-maximal effect (EC50) in series [1] is below 0.1 µM. The same compound registered a CC50 at 3 days in series [2] below 5 µM.

Regarding `CCOc1nc(NCc2ccc(S(N)(=O)=O)cc2)nc2ccc(-c3ccc(C(=O)NC4CC4)cc3)nc12` [Example 144, 4-{[4-Ethoxy-6-(4-(N-cyclopropylcarbamoyl)phenyl)-pyrido[3,2-d]pyrimidin-2-ylamino]-methyl}-benzenesulfonamide], the EC50 in series [1] is below 0.1 µM. The CC50 at 3 days in series [2] was in the range of 5 to 25 µM.

As for `NS(=O)(=O)c1ccc(CNc2nc(Nc3ccc(-n4cncn4)cc3)c3nc(-c4ccc(F)cc4)ccc3n2)cc1` [Example 228, 4-{[6-(4-Fluoro-phenyl)-4-(4-[1,2,4]triazol-1-yl-phenylamino)-pyrido[3,2-d]pyrimidin-2-ylamino]-methyl}-benzenesulfonamide], the EC50 in series [1] is below 0.1 µM. In series [2], this compound gave a CC50 at 3 days below 5 µM.

In series [1], `CCOc1nc(NCc2ccc(S(N)(=O)=O)cc2)nc2ccc(-c3cccc(N(CCO)S(C)(=O)=O)c3)nc12` [Example 140, 4-{[4-Ethoxy-6-(4-(3-(N-2-hydroxy-ethyl)methanesulfonamido)-phenyl)-pyrido[3,2-d]pyrimidin-2-ylamino]-methyl}-benzenesulfonamide] displayed an EC50 of 0.1 to 0.25 µM. This compound also returned a CC50 at 3 days in series [2] above 25 µM.

In series [1], `CCCc1nc(NCc2ccc(S(N)(=O)=O)cc2)nc2ccc(-c3ccc(F)cc3)nc12` [Example 112, 4-{[6-(4-Fluoro-phenyl)-4-propyl-pyrido[3,2-d]pyrimidin-2-ylamino]-methyl}-benzenesulfonamide] returned an EC50 below 0.1 µM. The compound also returned a CC50 at 3 days in series [2] below 5 µM.
